Source: ChEMBL document CHEMBL3994622, “Design and synthesis of new RAF kinase-inhibiting antiproliferative quinoline derivatives. Part 2: Diarylurea derivatives” (Eur J Med Chem, 2017)

Columns and labels:
Assay type in all cases: functional
[1] = system: NCI-H23; test: Growth inhibition of human NCI-H23 cells assessed as cell growth at 100 uM incubated for 48 hrs by sulforhodamine B assay relative to control; conditions: NCI-H23, 48 h, read-out: Activity
[2] = system: COLO 205; test: Growth inhibition of human COLO205 cells assessed as cell growth at 100 uM incubated for 48 hrs by sulforhodamine B assay relative to control; conditions: COLO 205, 48 h, read-out: Activity
[3] = system: SNB-19; test: Growth inhibition of human SNB19 cells assessed as cell growth at 100 uM incubated for 48 hrs by sulforhodamine B assay relative to control; conditions: SNB-19, 48 h, read-out: Activity
[4] = system: MCF7; test: Growth inhibition of human MCF7 cells assessed as cell growth at 100 uM incubated for 48 hrs by sulforhodamine B assay relative to control; conditions: MCF7, 48 h, read-out: Activity
[5] = system: SNB-19; test: Growth inhibition of human SNB19 cells assessed as cell growth at 1 uM incubated for 48 hrs by sulforhodamine B assay relative to control; conditions: SNB-19, 48 h, read-out: Activity
[6] = system: SW-620; test: Growth inhibition of human SW620 cells assessed as cell growth at 1 uM incubated for 48 hrs by sulforhodamine B assay relative to control; conditions: SW-620, 48 h, read-out: Activity
[7] = system: HCC 2998; test: Growth inhibition of human HCC2998 cells assessed as cell growth at 0.1 uM incubated for 48 hrs by sulforhodamine B assay relative to control; conditions: HCC 2998, 48 h, read-out: Activity
[8] = system: TK-10; test: Growth inhibition of human TK10 cells assessed as cell growth at 100 uM incubated for 48 hrs by sulforhodamine B assay relative to control; conditions: TK-10, 48 h, read-out: Activity
[9] = system: SK-OV-3; test: Growth inhibition of human SKOV3 cells assessed as cell growth at 10 uM incubated for 48 hrs by sulforhodamine B assay relative to control; conditions: SK-OV-3, 48 h, read-out: Activity
[10] = system: SW-620; test: Growth inhibition of human SW620 cells assessed as cell growth at 10 uM incubated for 48 hrs by sulforhodamine B assay relative to control; conditions: SW-620, 48 h, read-out: Activity
[11] = system: RXF 393; test: Growth inhibition of human RXF393 cells assessed as cell growth at 0.1 uM incubated for 48 hrs by sulforhodamine B assay relative to control; conditions: RXF 393, 48 h, read-out: Activity
[12] = system: Hs-578T; test: Growth inhibition of human Hs 578T cells assessed as cell growth at 0.01 uM incubated for 48 hrs by sulforhodamine B assay relative to control; conditions: read-out: Activity
[13] = system: SNB-19; test: Growth inhibition of human SNB19 cells assessed as cell growth at 10 uM incubated for 48 hrs by sulforhodamine B assay relative to control; conditions: SNB-19, 48 h, read-out: Activity
[14] = system: SNB-19; test: Growth inhibition of human SNB19 cells assessed as cell growth at 0.1 uM incubated for 48 hrs by sulforhodamine B assay relative to control; conditions: SNB-19, 48 h, read-out: Activity
[15] = system: UACC-257; test: Growth inhibition of human UACC257 cells assessed as cell growth at 0.01 uM incubated for 48 hrs by sulforhodamine B assay relative to control; conditions: UACC-257, 48 h, read-out: Activity
[16] = system: KM12; test: Growth inhibition of human KM12 cells assessed as cell growth at 10 uM incubated for 48 hrs by sulforhodamine B assay relative to control; conditions: KM12, 48 h, read-out: Activity
[17] = system: NCI/ADR-RES; test: Growth inhibition of human NCI/ADR-RES cells assessed as cell growth at 0.1 uM incubated for 48 hrs by sulforhodamine B assay relative to control; conditions: read-out: Activity
[18] = system: Hs-578T; test: Growth inhibition of human Hs 578T cells assessed as cell growth at 10 uM incubated for 48 hrs by sulforhodamine B assay relative to control; conditions: read-out: Activity
[19] = system: MDA-MB-435; test: Growth inhibition of human MDA-MB-435 cells assessed as cell growth at 0.1 uM incubated for 48 hrs by sulforhodamine B assay relative to control; conditions: MDA-MB-435, 48 h, read-out: Activity
[20] = system: NCI-H23; test: Growth inhibition of human NCI-H23 cells assessed as cell growth at 0.1 uM incubated for 48 hrs by sulforhodamine B assay relative to control; conditions: NCI-H23, 48 h, read-out: Activity
[21] = system: SW-620; test: Growth inhibition of human SW620 cells assessed as cell growth at 0.3 uM incubated for 48 hrs by sulforhodamine B assay relative to control; conditions: SW-620, 48 h, read-out: Activity
[22] = system: NCI-H322M; test: Growth inhibition of human NCI-H322M cells assessed as cell growth at 0.03 uM incubated for 48 hrs by sulforhodamine B assay relative to control; conditions: read-out: Activity
[23] = system: HL-60(TB); test: Growth inhibition of human HL-60(TB) cells assessed as cell growth at 3 uM incubated for 48 hrs by sulforhodamine B assay relative to control; conditions: HL-60, 48 h, read-out: Activity
[24] = system: NCI-H522; test: Growth inhibition of human NCI-H522 cells assessed as cell growth at 0.3 uM incubated for 48 hrs by sulforhodamine B assay relative to control; conditions: NCI-H522, 48 h, read-out: Activity
[25] = system: SN12C; test: Growth inhibition of human SN12C cells assessed as cell growth at 0.03 uM incubated for 48 hrs by sulforhodamine B assay relative to control; conditions: read-out: Activity
[26] = system: RXF 393; test: Growth inhibition of human RXF393 cells assessed as cell growth at 0.03 uM incubated for 48 hrs by sulforhodamine B assay relative to control; conditions: RXF 393, 48 h, read-out: Activity
[27] = system: OVCAR-8; test: Growth inhibition of human OVCAR8 cells assessed as cell growth at 0.03 uM incubated for 48 hrs by sulforhodamine B assay relative to control; conditions: OVCAR-8, 48 h, read-out: Activity
[28] = system: DU-145; test: Growth inhibition of human DU145 cells assessed as cell growth at 3 uM incubated for 48 hrs by sulforhodamine B assay relative to control; conditions: DU-145, 48 h, read-out: Activity
[29] = system: NCI-H460; test: Growth inhibition of human NCI-H460 cells assessed as cell growth at 0.003 uM incubated for 48 hrs by sulforhodamine B assay relative to control; conditions: NCI-H460, 48 h, read-out: Activity
[30] = system: MDA-MB-435; test: Growth inhibition of human MDA-MB-435 cells assessed as cell growth at 0.003 uM incubated for 48 hrs by sulforhodamine B assay relative to control; conditions: MDA-MB-435, 48 h, read-out: Activity
[31] = system: 786-0; test: Growth inhibition of human 786-0 cells assessed as cell growth at 0.003 uM incubated for 48 hrs by sulforhodamine B assay relative to control; conditions: 786-0, 48 h, read-out: Activity
[32] = system: TK-10; test: Growth inhibition of human TK10 cells assessed as cell growth at 0.3 uM incubated for 48 hrs by sulforhodamine B assay relative to control; conditions: TK-10, 48 h, read-out: Activity
[33] = system: NCI-H460; test: Growth inhibition of human NCI-H460 cells assessed as cell growth at 30 uM incubated for 48 hrs by sulforhodamine B assay relative to control; conditions: NCI-H460, 48 h, read-out: Activity
[34] = system: MDA-MB-231; test: Growth inhibition of human MDA-MB-231 cells assessed as cell growth at 0.3 uM incubated for 48 hrs by sulforhodamine B assay relative to control; conditions: MDA-MB-231, 48 h, read-out: Activity
[35] = system: HCC 2998; test: Growth inhibition of human HCC2998 cells assessed as cell growth at 30 uM incubated for 48 hrs by sulforhodamine B assay relative to control; conditions: HCC 2998, 48 h, read-out: Activity

Row | Compound | growth at 100 µM [1] [%] | growth at 100 µM [2] [%] | growth at 100 µM [3] [%] | growth at 100 µM [4] [%] | growth at 1 µM [5] [%] | growth at 1 µM [6] [%] | growth at 0.1 µM [7] [%] | growth at 100 µM [8] [%] | growth at 10 µM [9] [%] | growth at 10 µM [10] [%] | growth at 0.1 µM [11] [%] | growth at 0.01 µM [12] [%] | growth at 10 µM [13] [%] | growth at 0.1 µM [14] [%] | growth at 0.01 µM [15] [%] | growth at 10 µM [16] [%] | growth at 0.1 µM [17] [%] | growth at 10 µM [18] [%] | growth at 0.1 µM [19] [%] | growth at 0.1 µM [20] [%] | other results
1 | COc1cc2cc(Oc3ccc(NC(=O)Nc4ccc(Cl)c(Cl)c4)cc3)c(C)nc2cc1OC | -59 | -100 | -41 | -50 | 92 | 107 | 101 | -76 | 41 | 16 | 111 | 100 | 25 | 93 | 97 | 8 | 100 | -2 | 92 | 93 | –
2 | COc1cc2cc(Oc3ccc(NC(=O)Nc4cc(C(F)(F)F)cc(C(F)(F)F)c4)cc3)c(C)nc2cc1OC | -68 | -79 | -79 | -73 | 39 | 81 | 107 | -95 | -75 | -26 | 99 | 98 | -79 | 97 | 104 | -75 | 96 | -19 | 98 | 96 | –
3 | COc1cc2cc(Oc3ccc(NC(=O)Nc4ccc(Cl)c(C(F)(F)F)c4)cc3)c(C)nc2cc1OC | – | – | – | – | – | – | – | – | – | – | – | – | – | – | – | – | – | – | – | – | growth at 0.3 µM [21]: 99%; growth at 0.03 µM [22]: 90%; growth at 3 µM [23]: -2%; growth at 0.3 µM [24]: 85%; growth at 0.03 µM [25]: 95%; growth at 0.03 µM [26]: 104%; growth at 0.03 µM [27]: 94%; growth at 3 µM [28]: 17%; growth at 0.003 µM [29]: 106%; growth at 0.003 µM [30]: 98%; growth at 0.003 µM [31]: 97%; growth at 0.3 µM [32]: 100%; growth at 30 µM [33]: -62%; growth at 0.3 µM [34]: 87%; growth at 30 µM [35]: -98%
4 | Cc1nc2cc(O)c(O)cc2cc1Oc1ccc(NC(=O)Nc2ccc(Cl)c(Cl)c2)cc1 | – | – | – | – | – | – | – | – | – | – | – | – | – | – | – | – | – | – | – | – | growth at 0.3 µM [21]: 100%; growth at 0.03 µM [22]: 108%; growth at 3 µM [23]: 106%; growth at 0.3 µM [24]: 93%; growth at 0.03 µM [25]: 102%; growth at 0.03 µM [26]: 96%; growth at 0.03 µM [27]: 93%; growth at 3 µM [28]: 82%; growth at 0.003 µM [29]: 102%; growth at 0.003 µM [30]: 94%; growth at 0.003 µM [31]: 98%; growth at 0.3 µM [32]: 98%; growth at 30 µM [33]: -44%; growth at 0.3 µM [34]: 118%; growth at 30 µM [35]: -51%
